The target of one assay is PKA (Bos taurus, UniProt P00517). The assay is described as follows: PKA assays at different ATPγS concentrations on a microchip. In kind it is biochemical. Particulars: read-out: Km (Michaelis-Menten constant for the co-factor). As for the experimental part:
(§1) A typical reaction mixture (50 μl) contained 20 mM HEPES pH 7.5, 10 mM MgCl2, 50 μM fluorescein labeled Kemptide (Research Genetics, Huntsville, Ala., USA), 500 μM ATPγS (Sigma, St. Louis, Mo., USA, #A-1388), and 1 μl of the catalytic subunit of cAMP dependent protein kinase A (Promega Corp., Madison, Wis., USA, #V5161). The approximate final concentration of the enzyme was 700 nM. […] The mixture was incubated at room temperature for 15 min and the reaction terminated by the addition of EDTA to 45 mM. As a negative control, EDTA was added to one of the reaction mixtures before the addition of the kinase. The extent of thiophosphorylation was then analyzed by capillary electrophoresis with fluorescence detection either on a Beckman P/ACE System 5500 instrument, using a 50 μm fused silica capillary with 50 mM borate, pH 8.6 as the separation buffer, or on a microfabricated chip as described in Cohen et al., Anal. Chem. 273:89-97 (1999). Substrate and product peak areas were integrated and the extent of substrate phosphorylation was determined from their ratio.
Following a 15-min incubation, the reactions were stopped by the addition of EDTA, treated with iodoacetyl-LC-biotin, and analyzed by fluorescence polarization in the presence of streptavidin. […]

Assay [1] concerns the target T1, catalytic subunit of cAMP dependent protein kinase A (PKA) (Bos taurus, UniProt P00517).
T1 construct: purchased Promega Corp. V5161
The assay is described as follows: Homogeneous PKA kinase assay: thiophosphorylation, biotinylation, fluorescence polarization with streptavidin. The format is biochemical. Here is the method: as §1, with “ratio. […] The outcome of the biotinylation reaction could be determined at this point by capillary electrophoresis as described above, however, this is not required, nor is it preferred. […] An aliquot (1 μl) of the biotinylation reaction from step B was diluted in 400 μl of 50 mM HEPES, pH 7.4 and its fluorescence polarization measured. […]” for “ratio.”
Background: Fluorescence polarisation rises when a labelled molecule tumbles more slowly, as on binding a larger partner.

The text below walks through data of patent US6498005B1, “Homogeneous assay methods” (Caliper Technologies Corp., priority 1998, dated 2002).

Broadly, the Km is the concentration of substrate that gives half-maximal velocity. A word on the IC50: it is the concentration that gives 50% inhibition. Broadly, the Ki is the dissociation constant of the complex between target and ligand, obtained from inhibition or displacement.

Take `Nc1ncnc2c1ncn2[C@@H]1O[C@H](COP(=O)(O)OP(=O)(O)OP(O)(O)=S)[C@@H](O)[C@H]1O` [ATPγS]: the Km on PKA is about 6 µM.
With `O=S(=O)(NCCNC/C=C/c1ccc(Br)cc1)c1cccc2cnccc12` [H-89], the IC50 in assay [1] (H-89 0.5-10 μM, 500 μM ATPγS, 50 μM fluorescein labeled Kemptide, 15-min incubation at room temperature, estimated from substrate conversion) is about 5000 nM. Besides, the inhibition constant (Ki) in assay [1] (calculated from IC50=Ki(1+[S]/Km), ATPγS 500 μM, Km about 6 μM) was about 60 nM.
